Our source for the IC50 values is patent US8846698B2, “Pyrrolo[2,3-d]pyrimidine tropomysin-related kinase inhibitors” (Pfizer Limited, priority 2011, dated 2014).

SMILES strings stand for the structures.

The target of this assay is TRKA (Homo sapiens (Human), UniProt P04629). The experiment in a line: Isolated TRK enzyme assay (HTRF KinEASE-TK), TRKA. In kind it is biochemical. The following applies: read-out: Trka enzyme (IC50).
Sequence of TRKA (P04629 441-796): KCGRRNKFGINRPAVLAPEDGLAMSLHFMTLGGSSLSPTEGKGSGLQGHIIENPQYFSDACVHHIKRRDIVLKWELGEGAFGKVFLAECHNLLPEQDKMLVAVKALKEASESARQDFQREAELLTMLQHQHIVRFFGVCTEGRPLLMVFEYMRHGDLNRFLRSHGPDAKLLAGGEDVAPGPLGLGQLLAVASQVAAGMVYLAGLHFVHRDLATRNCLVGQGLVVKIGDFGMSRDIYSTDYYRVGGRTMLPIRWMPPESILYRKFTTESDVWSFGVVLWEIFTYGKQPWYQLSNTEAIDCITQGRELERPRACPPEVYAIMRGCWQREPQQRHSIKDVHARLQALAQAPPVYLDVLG

Regarding `COCC(C)(C)n1cc(C(=O)c2cncc(NC(=O)Cc3ccc(F)cn3)c2)c2cncnc21` [Example 537, 2-(5-Fluoro-pyridin-2-yl)-N-{5-[7-(2-methoxy-1,1-dimethyl-ethyl)-7H-pyrrolo[2,3-d]pyrimidine-5-carbonyl]-pyridin-3-yl}-acetamide], the half-maximal inhibitory concentration (IC50) (in general, the concentration at which inhibition is half-maximal) was found to be 10.6 nM. Next, `COCC(C)(C)n1cc(C(=O)c2cncc(NC(=O)Cn3ccc(C4CC4)n3)c2)c2cncnc21` [Example 538, 2-(3-Cyclopropyl-pyrazol-1-yl)-N-{5-[7-(2-methoxy-1,1-dimethyl-ethyl)-7H-pyrrolo[2,3-d]pyrimidine-5-carbonyl]-pyridin-3-yl}-acetamide]: 1.51 nM; `COCC(C)(C)n1cc(C(=O)c2cncc(NC(=O)Cc3ccc(F)cc3)c2)c2cncnc21` [Example 539, 2-(4-Fluoro-phenyl)-N-{5-[7-(2-methoxy-1,1-dimethyl-ethyl)-7H-pyrrolo[2,3-d]pyrimidine-5-carbonyl]-pyridin-3-yl}-acetamide]: 4.08 nM; `CN(C(=O)Cc1ccc(F)cc1)c1cncc(C(=O)c2cn(C(C)(C)C)c3ncncc23)c1` [Example 540, N-[5-(7-tert-Butyl-7H-pyrrolo[2,3-d]pyrimidine-5-carbonyl)-pyridin-3-yl]-2-(4-fluoro-phenyl)-N-methyl-acetamide]: 153 nM. In the case of `CN(C(=O)Cc1ccc(Cl)cn1)c1cncc(C(=O)c2cn(C(C)(C)C)c3ncncc23)c1` [Example 543, N-[5-(7-tert-Butyl-7H-pyrrolo[2,3-d]pyrimidine-5-carbonyl)-pyridin-3-yl]-2-(5-chloro-pyridin-2-yl)-N-methyl-acetamide] it was 50 nM. Next, `CN(C(=O)Cc1ccc(Cl)cc1)c1cncc(C(=O)c2cn(C(C)(C)C)c3ncncc23)c1` [Example 544, N-[5-(7-tert-Butyl-7H-pyrrolo[2,3-d]pyrimidine-5-carbonyl)-pyridin-3-yl]-2-(4-chloro-phenyl)-N-methyl-acetamide]: 31.6 nM. Consider `CC(C)(C)n1cc(C(=O)c2cncc(NC(=O)Cc3ccc(Cl)cc3)c2)c2cncnc21` [Example 545, N-[5-(7-tert-Butyl-7H-pyrrolo[2,3-d]pyrimidine-5-carbonyl)-pyridin-3-yl]-2-(4-chloro-phenyl)-acetamide], for which the IC50 was 2.95 nM. Next, `CC(C)(C)n1cc(C(=O)c2cncc(NC(=O)Cc3ccc(F)cc3)c2)c2cncnc21` [Example 546, N-[5-(7-tert-Butyl-7H-pyrrolo[2,3-d]pyrimidine-5-carbonyl)-pyridin-3-yl]-2-(4-fluoro-phenyl)-acetamide]: 5.34 nM; `COCC(C)(C)n1cc(C(=O)c2cncc(NC(=O)Cc3ccc(Cl)cn3)c2)c2cnc(N)nc21` [Example 547, N-{5-[2-Amino-7-(2-methoxy-1,1-dimethyl-ethyl)-7H-pyrrolo[2,3-d]pyrimidine-5-carbonyl]-pyridin-3-yl}-2-(5-chloro-pyridin-2-yl)-acetamide]: 3.88 nM. As to `COCC(C)(C)n1cc(C(=O)c2cncc(NC(=O)Cc3ccc(F)cn3)c2)c2cnc(N)nc21` [Example 548, N-{5-[2-Amino-7-(2-methoxy-1,1-dimethyl-ethyl)-7H-pyrrolo[2,3-d]pyrimidine-5-carbonyl]-pyridin-3-yl}-2-(5-fluoro-pyridin-2-yl)-acetamide], the half-maximal inhibitory concentration (IC50) was determined as 21.2 nM. Next, `COCC(C)(C)n1cc(C(=O)c2cncc(NC(=O)Cn3ccc(C(F)(F)F)n3)c2)c2cnc(N)nc21` [Example 549, N-{5-[2-Amino-7-(2-methoxy-1,1-dimethyl-ethyl)-7H-pyrrolo[2,3-d]pyrimidine-5-carbonyl]-pyridin-3-yl}-2-(3-trifluoromethyl-pyrazol-1-yl)-acetamide]: 3.22 nM; `COCC(C)(C)n1cc(C(=O)c2cncc(NC(=O)Cn3cc(C(F)(F)F)nn3)c2)c2cnc(N)nc21` [Example 550, N-{5-[2-Amino-7-(2-methoxy-1,1-dimethyl-ethyl)-7H-pyrrolo[2,3-d]pyrimidine-5-carbonyl]-pyridin-3-yl}-2-(4-trifluoromethyl-[1,2,3]triazol-1-yl)-acetamide]: 16.1 nM.
